# Laboratory results from ChEMBL document CHEMBL1201862, “PubChem BioAssay data set” (2004).
# The source made the active and inactive calls. For most assays here, no stated cut-off is given here; in the data, actives have a measured EC50 and inactives only a lower limit.
# How the values were obtained:
# [1] = NIH3T3 cell viability loss – ATP luminescence, mouse fibroblasts, counter-screen, dose response (AID 2010); type: functional, cell-based;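 further: cells exposed to compound for about 90 hours before reading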
# [2] = Trypanosoma cruzi growth suppression in host cells – NIH3T3 host cells, beta-gal luminescence, confirmation (AID 2044); type: functional, cell-based;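 further: intracellular parasites grown in NIH/3T3 mouse fibroblasts as host cells; luminescent beta-galactosidase reporter signal from transgenic T. cruzi replicating inside host cells; inhibitors lower the luminescence signal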
# [3] = molecular target: Cytochrome P450 3A4 (Homo sapiens, UniProt P08684);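 further: CYP3A4 tested as one member of a cytochrome P450 panel screen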
# [4] = tested on: INS1; experiment: INS-1E survival protection against cytokine death – cell-based, luminescence, retest, dose response (AID 449756); type: functional; details: Rattus norvegicus, INS1;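 further: cell death triggered by IL-1 beta plus TNF-alpha plus IFN-gamma mixture; protective hits raise ATP signal compared with cytokine alone wells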
# [5] = molecular target: T1, Cytochrome P450 1A2 (Homo sapiens, UniProt P05177);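 further: PubChem cytochrome P450 panel assay, CYP1A2 panel member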
# T1 sequence (P05177 whole entry): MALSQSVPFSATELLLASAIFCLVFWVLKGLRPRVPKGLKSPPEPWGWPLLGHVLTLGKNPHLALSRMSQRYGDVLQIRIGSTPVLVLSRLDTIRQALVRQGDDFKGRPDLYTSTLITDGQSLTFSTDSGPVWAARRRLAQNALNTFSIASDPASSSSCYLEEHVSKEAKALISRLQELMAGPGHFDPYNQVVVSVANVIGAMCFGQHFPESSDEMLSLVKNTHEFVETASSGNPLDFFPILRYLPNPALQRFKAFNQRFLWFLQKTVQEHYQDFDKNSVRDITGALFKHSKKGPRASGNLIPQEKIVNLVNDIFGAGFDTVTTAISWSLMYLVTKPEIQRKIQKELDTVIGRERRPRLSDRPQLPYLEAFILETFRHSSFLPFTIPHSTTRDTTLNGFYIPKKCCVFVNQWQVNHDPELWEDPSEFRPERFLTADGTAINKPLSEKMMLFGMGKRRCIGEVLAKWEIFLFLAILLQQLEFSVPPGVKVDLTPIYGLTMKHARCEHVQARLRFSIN
# [6] = molecular target: T2, Zinc finger protein mex-5 (Caenorhabditis elegans, UniProt Q9XUB2); experiment: potency of MEX-5 RNA-binding blockers – biochemical, C. elegans, fluorescence polarization, dose response (AID 1960)
# T2 sequence (Q9XUB2 whole entry): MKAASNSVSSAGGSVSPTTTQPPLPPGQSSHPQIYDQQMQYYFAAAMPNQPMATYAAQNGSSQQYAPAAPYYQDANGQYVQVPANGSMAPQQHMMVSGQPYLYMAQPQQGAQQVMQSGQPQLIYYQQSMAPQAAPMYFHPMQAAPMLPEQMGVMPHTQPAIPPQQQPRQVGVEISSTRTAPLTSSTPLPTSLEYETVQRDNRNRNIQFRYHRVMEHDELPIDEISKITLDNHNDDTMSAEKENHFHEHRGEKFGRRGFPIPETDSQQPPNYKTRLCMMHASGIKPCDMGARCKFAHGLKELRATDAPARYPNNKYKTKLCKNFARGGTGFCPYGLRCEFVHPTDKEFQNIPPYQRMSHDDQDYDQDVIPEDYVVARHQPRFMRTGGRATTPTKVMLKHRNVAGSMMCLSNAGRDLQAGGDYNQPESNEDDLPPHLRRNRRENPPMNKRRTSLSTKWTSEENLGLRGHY
# [7] = molecular target: T3, RNA-binding protein pos-1 (Caenorhabditis elegans, UniProt G5EF15); experiment: disruptors of C. elegans POS-1 RNA interaction – biochemical, fluorescence polarization, dose response (AID 1964);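 further: purified POS-1 fused to maltose binding protein made in E. coli; potency of compounds blocking POS-1 binding to fluorescent RNA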
# T3 sequence (G5EF15 whole entry): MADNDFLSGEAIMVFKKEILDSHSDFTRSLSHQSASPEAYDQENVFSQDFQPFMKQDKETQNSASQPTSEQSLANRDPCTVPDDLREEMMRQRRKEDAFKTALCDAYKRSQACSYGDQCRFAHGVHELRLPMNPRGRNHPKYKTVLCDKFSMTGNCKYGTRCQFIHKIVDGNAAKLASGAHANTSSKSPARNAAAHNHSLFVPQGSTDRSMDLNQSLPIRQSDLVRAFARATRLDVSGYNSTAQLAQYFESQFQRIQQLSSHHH
# [8] = molecular target: T4, Corticotropin-releasing factor receptor 2/Corticotropin-releasing factor-binding protein (Homo sapiens, UniProt P24387+Q13324); experiment: activators of CRF receptor 2 with binding protein – uHTS hits, confirmation (AID 602473); type: functional; details: read-out: EC50_Mean
# T4 sequence (Q13324 whole entry): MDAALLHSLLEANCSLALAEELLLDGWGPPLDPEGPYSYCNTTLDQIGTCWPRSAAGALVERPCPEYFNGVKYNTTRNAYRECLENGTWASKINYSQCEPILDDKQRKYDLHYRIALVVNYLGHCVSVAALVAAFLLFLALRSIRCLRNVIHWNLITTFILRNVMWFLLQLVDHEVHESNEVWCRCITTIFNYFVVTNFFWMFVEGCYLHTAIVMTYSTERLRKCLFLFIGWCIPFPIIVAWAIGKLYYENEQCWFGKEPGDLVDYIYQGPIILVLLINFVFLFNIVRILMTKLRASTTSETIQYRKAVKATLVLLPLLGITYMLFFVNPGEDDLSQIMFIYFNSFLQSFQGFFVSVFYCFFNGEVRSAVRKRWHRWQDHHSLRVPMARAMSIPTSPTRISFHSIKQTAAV
# T4 sequence (P24387 whole entry): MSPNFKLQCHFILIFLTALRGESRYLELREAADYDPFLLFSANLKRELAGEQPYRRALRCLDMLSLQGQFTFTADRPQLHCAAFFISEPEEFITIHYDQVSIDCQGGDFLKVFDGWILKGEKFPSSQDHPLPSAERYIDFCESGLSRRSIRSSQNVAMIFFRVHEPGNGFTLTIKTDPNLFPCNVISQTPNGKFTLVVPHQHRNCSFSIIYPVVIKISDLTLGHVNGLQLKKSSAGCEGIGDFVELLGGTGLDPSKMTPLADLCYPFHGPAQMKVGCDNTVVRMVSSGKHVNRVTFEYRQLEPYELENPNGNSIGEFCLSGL
# [9] = tested on: Streptococcus sp. 'group A'; experiment: Streptococcus pyogenes SK(-)GAS viability under kanamycin – luminescence, BacTiterGlo, confirmation, counter-screen for streptokinase expression inhibitor project, dose response (AID 1900); type: functional, organism-based
# [10] = tested on: Streptococcus; experiment: GAS UMAA2166 growth inhibition – luminescence, BacTiterGlo, counter-screen for streptokinase expression inhibitor project, dose response (AID 1915); type: functional, organism-based;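 further: potency for reduction of bacterial viability or growth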
# [11] = Luminescence Cell-Based Dose Response HTS to Identify Activators of Luciferase Translation or Activity in H4 […] Cells. [Related pubchem assays: 1829 (Project Summary), 1814 (Primary HTS)]; type: functional
# Chain of Cytochrome P450 3A4 (P08684 whole entry): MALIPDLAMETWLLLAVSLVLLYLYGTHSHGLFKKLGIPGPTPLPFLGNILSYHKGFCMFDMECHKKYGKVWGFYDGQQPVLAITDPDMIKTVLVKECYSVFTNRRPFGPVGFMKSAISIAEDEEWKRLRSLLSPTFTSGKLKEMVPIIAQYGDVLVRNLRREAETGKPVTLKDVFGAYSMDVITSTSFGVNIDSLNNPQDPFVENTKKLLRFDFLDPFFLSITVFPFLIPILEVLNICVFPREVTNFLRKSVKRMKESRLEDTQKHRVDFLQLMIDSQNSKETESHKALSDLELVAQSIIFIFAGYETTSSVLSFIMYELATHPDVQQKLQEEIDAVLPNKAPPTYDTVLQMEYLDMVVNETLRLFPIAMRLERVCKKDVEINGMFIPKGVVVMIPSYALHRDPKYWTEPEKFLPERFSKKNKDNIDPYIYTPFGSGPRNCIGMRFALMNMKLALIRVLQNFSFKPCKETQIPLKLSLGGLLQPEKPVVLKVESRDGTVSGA
compound,measurement,setting,value
COCCn1c(SCC(=O)NC(=O)NCc2ccccc2)nc2ccccc21,EC50,[1],> 60 µM (not active)
same,EC50,[2],1.14 µM (active)
O=C(Nc1cccc(-c2cn3cccnc3n2)c1)c1ccco1,EC50,[1],> 30 µM (not active)
same,AC50,[3],25.1 µM (inconclusive)
same,EC50,[2],0.941 µM (active)
CN1CCCC2(CCN(C(=O)c3cnccn3)CC2)C1,AC50,[3],25.1 µM (inconclusive)
COc1ccccc1CN1C[C@@H]2C[C@@H](c3ccc(C)c(C)c3)N3CCC[C@@]23C1=O,EC50,[1],> 30 µM (not active)
same,EC50,[2],2.26 µM (active)
O=C(NCc1cccnc1)c1sc2cc(Cl)ccc2c1Cl,AC50,[3],0.891 µM (inconclusive)
COc1ccc(Cl)c(Cn2c(NCc3ccco3)nc3c2c(=O)n(C)c(=O)n3C)c1,AC50,[4],3.27 µM (active)
COc1ccc(N(C)S(=O)(=O)c2ccc3c(c2)CCC(=O)N3)cc1,AC50,[3],3.55 µM (inconclusive)
same,AC50,[5],0.01 µM (inconclusive)
CC(C)Cc1ccc(CN2CCC(n3nccc3NC(=O)C3CCCC3)CC2)cc1,EC50,[1],> 60 µM (not active)
same,EC50,[2],0.313 µM (active)
Cc1ccc(-c2cnc(NC(=O)CCC(=O)N(C)Cc3ccccc3)n2C)cc1,AC50,[4],21.3 µM (active)
CCN1C(=O)[C@H]2[C@@H](c3ccc(-c4cccc(Cl)c4)cc3)N[C@@](Cc3ccccc3)(C(=O)OC)[C@H]2C1=O,EC50,[1],14.6 µM (active)
same,EC50,[2],2.06 µM (active)
N#Cc1ccc(CN2CC[C@@]3(CCCNC3)C2)cc1,AC50,[3],31.6 µM (inconclusive)
same,AC50,[5],25.1 µM (inconclusive)
COCCNC(=O)CSc1nc2ccc(N3CCOCC3)cc2c(=O)n1Cc1ccc(OC)cc1,AC50,[5],15.8 µM (inconclusive)
O=C(Nc1ccc(F)cc1F)N1CCCCC1c1cccnc1 (centres undefined),EC50,[1],> 60 µM (not active)
same,EC50,[2],0.654 µM (active)
COc1cc(OC)cc(C(=O)Nn2cc(C(=O)N3CCN(C)CC3)c3ccccc3c2=O)c1,AC50,[3],28.2 µM (inconclusive)
same,AC50,[5],10 µM (inconclusive)
COc1ccc(-c2c[n+](-c3ccc(Cl)cc3)c3n2CCCCC3)cc1,EC50,[1],> 60 µM (not active)
same,EC50,[2],0.781 µM (active)
same,AC50,[4],2.16 µM (active)
CC(CN1CCN(C)CC1)OC(=O)c1ccc(Cl)cc1 (centres undefined),EC50,[1],> 60 µM (not active)
same,EC50,[2],0.606 µM (active)
C=C(C)CSc1nc2sc3c(c2c(=O)n1-c1ccccc1)CCN(C)C3,EC50,[1],> 30 µM (not active)
same,EC50,[2],0.197 µM (active)
CCN(CC(=O)Nc1ccc(NC(C)=O)cc1)C(=O)CCCOc1ccc(C(C)(C)C)cc1,AC50,[4],23.7 µM (active)
CC(C)[C@H](Sc1nc(N)nc2[nH]cnc12)C(=O)O,AC50,[5],0.316 µM (inconclusive)
CCC(C)n1c(=N)c(C#N)cc2c(=O)n3cccc(C)c3nc21 (centres undefined),EC50,[6],21.5 µM (inconclusive)
same,EC50,[7],296 µM (active)
COc1ccc(-c2nc3cnc(N4CCN(C)CC4)nc3n(C)c2=O)cc1,AC50,[5],25.1 µM (inconclusive)
CCN(CC)CCN1c2ccccc2Sc2ccc3ccccc3c21,AC50,[4],14 µM (active)
O=C(CCn1c2c(c3ccccc31)CCCC2)NNC(=O)c1ccccc1C(=O)O,EC50,[8],7.66 µM (active)
COc1ccc(C2=NOC(CN=C(N)S)C2)cc1 (centres undefined),EC50,[9],3.77 µM (active)
same,EC50,[10],10.9 µM (active)
CC(C)(C)C(=O)Nc1ccnc(-c2cccnc2)n1,AC50,[3],2.51 µM (inconclusive)
O=C(CCN1CCN(Cc2ccccc2)CC1)Nc1cccc(Cl)c1,EC50,[1],> 60 µM (not active)
same,EC50,[2],0.965 µM (active)
CCOC(=O)Cc1ccc(NCc2ccc(Cl)cc2)cc1,EC50,[1],> 30 µM (not active)
same,EC50,[2],1.47 µM (active)
CCc1noc(C)c1C(=O)N1CCCC(C(=O)c2cc(F)ccc2OC)C1 (centres undefined),EC50,[1],> 60 µM (not active)
same,EC50,[2],9.23 µM (active)
COc1ccc(Nc2ncnc3c2oc2ccccc23)cc1,EC50,[11],7.34 µM (active)
O=C(C1CCCN(Cc2cccc(Cl)c2)C1)N1CCCCC1 (centres undefined),EC50,[1],> 30 µM (not active)
same,EC50,[2],0.167 µM (active)
O=C(CN1CCC(C(O)(c2ccccc2)c2ccccc2)CC1)Nc1cc(Cl)ccc1Cl,EC50,[1],9.41 µM (active)
same,EC50,[2],1.38 µM (active)
Cc1ccc(S(=O)(=O)c2ccccc2)cc1S,EC50,[1],> 30 µM (not active)
same,EC50,[2],0.983 µM (active)
COc1cccc2c(=O)n(CC(=O)N3CCc4ccccc43)ccc12,EC50,[8],> 53 µM (inactive)
CCOc1ccc(N2C(=O)NC(=O)/C(=C\Nc3ccc(N4CCOCC4)cc3)C2=O)cc1,EC50,[6],60.4 µM (inconclusive)
same,EC50,[7],17.6 µM (inconclusive)
CC(=O)N1CCN(C(=O)CC2OC(=O)c3ccccc32)CC1 (centres undefined),AC50,[5],22.4 µM (inconclusive)
CCC(CO)Oc1cc(NCc2ccc(C(C)(C)C)cc2)c2ncn(C(C)C)c2c1 (centres undefined),AC50,[4],3.07 µM (active)
Cc1ccc(OC[C@H](O)[C@H](C)NC(C)C)c2c1CCC2,AC50,[3],31.6 µM (inconclusive)
CCOc1cc(/C=N/NC(=O)c2cc(-c3cccc(OC)c3)nc3ccccc23)ccc1O,AC50,[4],8.15 µM (active)
O=C(CN1CCOCC1)N/N=C/c1c(O)ccc2ccccc12,AC50,[4],4.87 µM (active)
O=C(O)c1ccccc1C(=O)Nc1cc2c(cc1Br)-c1ccccc1C2=O,AC50,[5],0.631 µM (inconclusive)
COc1ccc(CCNC[C@H](O)c2ccc(O)cc2)cc1OC [DENOPAMINE],AC50,[3],25.1 µM (inconclusive)
